Test results: patent publication US8217045B2, “Organic compounds” (Novartis AG, priority 2007, dated 2012)

Tests used:
c-Abl (His-cAbl) = target: T1, c-Abl (His-cAbl) (Homo sapiens, UniProt P00519); experiment: in vitro enzyme assay, wild-type Abl catalysed phosphorylation; type: biochemical; details: 16 nM His-cAbl, 10 μM ATP, 1 hour at 30° C.; read-out: IC50, inhibition of wild-type Abl catalysed phosphorylation
T1 construct: The His-tagged kinase domain of Abl is cloned and expressed; His tag; made in house; host or cells: baculovirus/Sf9
T1 sequence (P00519 242-493 limits assumed): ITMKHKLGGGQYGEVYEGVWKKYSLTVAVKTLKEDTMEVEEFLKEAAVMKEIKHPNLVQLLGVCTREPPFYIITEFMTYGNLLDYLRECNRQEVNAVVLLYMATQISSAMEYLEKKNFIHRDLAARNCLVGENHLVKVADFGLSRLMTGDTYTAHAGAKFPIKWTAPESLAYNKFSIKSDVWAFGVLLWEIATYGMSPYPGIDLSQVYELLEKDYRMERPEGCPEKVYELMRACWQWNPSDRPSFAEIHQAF
Description: Test for activity against wild-type and mutant Abl protein tyrosine kinase:
The test, an in vitro enzyme assay, is conducted as a filter binding assay as follows: The His-tagged kinase domain of Abl is cloned and expressed in the baculovirus/Sf9 system as described by Bhat et al., J. Biol. Chem. 1997; 272:16170-16175. A protein of 37 kD (Abl kinase) is purified by a two-step procedure over a Cobalt metal chelate column followed by an anion exchange column with a yield of 1-2 mg/L of Sf9 cells. The purity of the Abl kinase is >90% as judged by SDS-PAGE after Coomassie blue staining.
Based on the optimized assay conditions for the individual kinases a specific assay set-up was chosen. The assays were prepared and incubated on a liquid handling robot system using 384-well plates. To the assay plates containing 50 nL compound or control solutions, 4.5 μL of solution A consisting of the peptide substrate and ATP in assay buffer were added. The reactions were initiated by adding 4.5 μL of solution B consisting of the respective kinase in assay buffer. The reactions were incubated for 1 hour at 30° C. in a final reaction volume of 9.05 μL. Based on a generic assay buffer (50 mM HEPES pH7.5, 1 mM DTT, 0.02% Tween20, 0.02% BSA), following components were added depending on the chosen kinase: • c-Abl: 16 nM His-cAbl, 5 μM peptide substrate (FITC-Ahx-EAIYAAPFAKKK-CONH2), 10 mM MgCl2, 10 μM ATP • c-Abl-T315I: 2.4 nM His-cAbl-T315I, 5 μM peptide substrate (FITC-Ahx-EAIYAAPFAKKK-CONH2), 10 mM MgCl2, 10 μM ATP
After incubation, the kinase reactions were stopped by the addition of 16 μL of stop solution (100 mM HEPES, 5% DMSO, 0.1% Coating reagent, 10 mM EDTA, 0.015% Brij 35). Subsequently, the assay plates were transferred to a Caliper LabChip3000 reader and the unphosphorylated substrate and the phosphorylated product were separated and quantitated in a microfluidic chip.

Bcr-Abl = Bcr-Abl (Homo sapiens, UniProt P00519); experiment: Bcr-Abl phosphorylation capture ELISA in 32D-Bcr-Abl cells; type: cell-based, murine; details: 90 min at 37° C., read-out: IC50, reduction of Bcr-Abl phosphorylation
Bcr-Abl, sequence (P00519 with tags, fused parts or gaps): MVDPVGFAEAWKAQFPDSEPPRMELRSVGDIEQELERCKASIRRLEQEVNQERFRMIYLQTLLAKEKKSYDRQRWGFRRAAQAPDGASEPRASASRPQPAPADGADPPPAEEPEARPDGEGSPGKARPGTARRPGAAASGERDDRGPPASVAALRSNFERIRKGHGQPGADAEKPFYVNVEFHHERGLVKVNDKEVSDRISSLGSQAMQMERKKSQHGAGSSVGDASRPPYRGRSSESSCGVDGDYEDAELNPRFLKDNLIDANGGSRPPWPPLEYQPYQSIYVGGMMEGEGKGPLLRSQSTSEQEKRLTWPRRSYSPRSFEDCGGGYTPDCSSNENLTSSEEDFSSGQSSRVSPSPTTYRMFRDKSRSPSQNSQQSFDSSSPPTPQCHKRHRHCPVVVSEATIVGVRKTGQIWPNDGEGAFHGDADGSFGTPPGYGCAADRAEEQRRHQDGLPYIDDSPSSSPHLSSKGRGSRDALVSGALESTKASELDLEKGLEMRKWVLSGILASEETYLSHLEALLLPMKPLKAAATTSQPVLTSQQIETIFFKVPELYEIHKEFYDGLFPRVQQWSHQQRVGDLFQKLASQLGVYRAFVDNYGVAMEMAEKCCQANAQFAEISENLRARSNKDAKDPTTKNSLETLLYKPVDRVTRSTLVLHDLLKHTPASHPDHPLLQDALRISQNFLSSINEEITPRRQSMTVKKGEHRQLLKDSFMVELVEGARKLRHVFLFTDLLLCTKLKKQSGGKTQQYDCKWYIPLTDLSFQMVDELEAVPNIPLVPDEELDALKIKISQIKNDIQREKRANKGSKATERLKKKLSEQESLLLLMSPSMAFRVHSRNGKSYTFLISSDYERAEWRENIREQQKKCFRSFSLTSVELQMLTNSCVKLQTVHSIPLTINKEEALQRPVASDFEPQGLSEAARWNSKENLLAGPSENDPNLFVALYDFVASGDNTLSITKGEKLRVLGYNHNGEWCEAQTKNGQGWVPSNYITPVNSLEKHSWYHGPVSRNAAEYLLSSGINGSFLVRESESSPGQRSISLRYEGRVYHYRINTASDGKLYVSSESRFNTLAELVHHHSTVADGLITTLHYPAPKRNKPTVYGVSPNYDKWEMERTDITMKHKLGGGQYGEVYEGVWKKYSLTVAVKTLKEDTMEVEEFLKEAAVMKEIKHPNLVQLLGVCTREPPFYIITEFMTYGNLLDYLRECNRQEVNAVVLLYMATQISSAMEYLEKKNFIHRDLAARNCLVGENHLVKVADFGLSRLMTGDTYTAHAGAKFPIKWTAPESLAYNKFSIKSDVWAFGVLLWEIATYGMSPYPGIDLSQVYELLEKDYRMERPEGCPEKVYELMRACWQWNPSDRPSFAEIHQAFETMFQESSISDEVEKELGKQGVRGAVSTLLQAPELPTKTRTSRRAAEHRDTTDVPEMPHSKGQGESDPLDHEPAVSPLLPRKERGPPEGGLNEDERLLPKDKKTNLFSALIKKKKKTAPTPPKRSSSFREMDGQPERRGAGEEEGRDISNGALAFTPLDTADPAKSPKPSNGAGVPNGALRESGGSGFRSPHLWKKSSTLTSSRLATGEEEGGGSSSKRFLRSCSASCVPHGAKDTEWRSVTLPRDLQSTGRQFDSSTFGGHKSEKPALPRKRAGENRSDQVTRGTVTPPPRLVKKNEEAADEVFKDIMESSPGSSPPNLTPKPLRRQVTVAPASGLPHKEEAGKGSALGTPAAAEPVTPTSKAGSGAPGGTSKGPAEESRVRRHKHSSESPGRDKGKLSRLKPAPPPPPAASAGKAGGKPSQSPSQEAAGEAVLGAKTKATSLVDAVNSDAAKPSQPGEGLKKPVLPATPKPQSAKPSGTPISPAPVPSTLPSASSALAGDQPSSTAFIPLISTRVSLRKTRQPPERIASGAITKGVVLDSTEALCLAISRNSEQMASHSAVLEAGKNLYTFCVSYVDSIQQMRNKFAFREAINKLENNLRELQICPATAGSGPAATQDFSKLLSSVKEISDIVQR
Excerpt: 32D cl3 cells are obtained from the American Type Culture Collection (ATCC CRL11346) and Ba/F3 cells are obtained from the German Collection of Microorganisms and Cell Cultures (DSMZ, Braunschweig and DSMZ No. ACC 300) Palacios et al., Nature, 1984; 309:126 and Palacios et al., Cell, 1985:41:72.
Oncogene 1996; 12: 839-46; and Okuda K, Golub T R, Gilliland D G, Griffin J D. p210BCR-ABL, p190BCR-ABL, and TEL/ABL activate similar signal transduction pathways in hematopoietic cell lines. Oncogene 1996; 13:1147-52.)
The cells express the fusion Bcr-Abl protein with a constitutively active Abl kinase and proliferate growth factor independent. The cells are expanded in RPMI 1640 (AMIMED), 10% fetal calf serum (FCS), 2 mM glutamine (Gibco) (“complete medium”), and a working stock is prepared by freezing aliquots of 2×10^6 cells per vial in freezing medium (95% FCS, 5% DMSO (SIGMA)). After thawing, the cells are used during maximally 10-12 passages for the experiments. The antibody anti-Abl SH3 domain cat. #06-466 from Upstate Biotechnology is used for the ELISA. For detection of Bcr-Abl phosphorylation, the anti-phosphotyrosine antibody Ab PY20, labelled with alkaline phosphatase ([…]) from ZYMED (cat. #03-7722) is used. […]

SMILES: O=C(Nc1cc(N2CCNCC2)cc(C(F)(F)F)c1)c1cccc2cc(Oc3ccnc(NC(=O)C4CC4)c3)ccc12 [Example 10, 6-[[2-(Cyclopropanecarbonyl-amino)-pyridin-4-yl]oxy]-naphthalene-1-carboxylic acid (3-piperazin-1-yl-5-trifluoromethyl-phenyl)-amide]
- IC50 (c-Abl (His-cAbl)): < 5 nM
- IC50 (Bcr-Abl): 101 to 370 nM
